Measured values published in PubChem BioAssay (NCI).
Several values for one entry are separate records, joined by “and”; a condition that tells them apart may be missing. Equal entries are not always repeated.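 All cell lines were grown in 96-well plates and treated with compound for 48 hours. Abbreviation: GI50, concentration required for 50% inhibition of growth. TGI: concentration producing complete growth inhibition.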

Tests used:
Assay in all cases: growth of human tumour cells (NCI), 48 h
ACHN renal = test system: ACHN renal
OVCAR-3 ovarian = test system: OVCAR-3 ovarian
SNB-75 CNS = test system: SNB-75 CNS
RXF 393 renal = test system: RXF 393 renal
MALME-3M melanoma = test system: MALME-3M melanoma
HCT-116 colon = test system: HCT-116 colon
IGROV1 ovarian = test system: IGROV1 ovarian
T-47D breast = test system: T-47D breast
PC-3 prostate = test system: PC-3 prostate
MDA-MB-231 breast = test system: MDA-MB-231 breast

CC(=O)n1nnc2ccc([N+](=O)[O-])cc21
TGI (ACHN renal): > 100 µM
TGI (OVCAR-3 ovarian): > 100 µM
TGI (SNB-75 CNS): > 100 µM
TGI (RXF 393 renal): > 100 µM
TGI (MALME-3M melanoma): > 100 µM
TGI (HCT-116 colon): > 100 µM
TGI (IGROV1 ovarian): > 100 µM

COC(=O)C(=O)C(C#N)c1cccc(Cl)c1 (configuration not stated)
TGI (ACHN renal): > 100 µM
TGI (OVCAR-3 ovarian): > 100 µM
TGI (SNB-75 CNS): > 100 µM
TGI (RXF 393 renal): > 100 µM
TGI (MALME-3M melanoma): > 100 µM
TGI (HCT-116 colon): > 100 µM
TGI (IGROV1 ovarian): > 100 µM

CC(=O)NC(CS)C(=O)O (configuration not stated)
GI50 (ACHN renal): > 100 µM
TGI (ACHN renal): > 100 µM
GI50 (OVCAR-3 ovarian): > 100 µM
TGI (OVCAR-3 ovarian): > 100 µM and 58500 µM
GI50 (T-47D breast): > 100 µM
TGI (T-47D breast): > 100 µM
GI50 (SNB-75 CNS): > 100 µM
TGI (SNB-75 CNS): > 100 µM and 89800 µM
GI50 (RXF 393 renal): > 100 µM
TGI (RXF 393 renal): > 100 µM and 69300 µM
GI50 (PC-3 prostate): > 100 µM
TGI (PC-3 prostate): > 100 µM
GI50 (MALME-3M melanoma): > 100 µM
TGI (MALME-3M melanoma): > 100 µM and 54500 µM
GI50 (HCT-116 colon): > 100 µM
TGI (HCT-116 colon): > 100 µM and 52800 µM
TGI (IGROV1 ovarian): 16600 µM

Cc1cc2c(C(=O)NCC#N)cccc2n1-c1nc2c(c(NCc3ccccc3)n1)CCCC2
GI50 (ACHN renal): 0.28 µM
TGI (ACHN renal): 1.24 µM
GI50 (OVCAR-3 ovarian): 0.245 µM
TGI (OVCAR-3 ovarian): 0.62 µM
GI50 (T-47D breast): 0.269 µM
TGI (T-47D breast): 1.53 µM
GI50 (SNB-75 CNS): 0.345 µM
TGI (SNB-75 CNS): 1.74 µM
GI50 (RXF 393 renal): 0.225 µM
TGI (RXF 393 renal): 0.541 µM
GI50 (MALME-3M melanoma): 0.201 µM
TGI (MALME-3M melanoma): 0.618 µM
GI50 (MDA-MB-231 breast): 0.273 µM
TGI (MDA-MB-231 breast): 0.59 µM
GI50 (HCT-116 colon): 0.185 µM
TGI (HCT-116 colon): 0.637 µM
GI50 (IGROV1 ovarian): 0.315 µM
TGI (IGROV1 ovarian): 1.24 µM

CCC1=C[C@@H]2CN(C1)Cc1c([nH]c3ccccc13)[C@@](C(=O)OC)(c1cc3c(cc1OC)N(C)[C@H]1[C@@](O)(C(=O)OC)[C@H](OC(C)=O)[C@]4(CC)C=CCN5CC[C@]31[C@@H]54)C2
GI50 (ACHN renal): 0.194 µM
TGI (ACHN renal): 25.6 µM
GI50 (OVCAR-3 ovarian): < 0.01 µM
TGI (OVCAR-3 ovarian): < 0.01 µM
GI50 (SNB-75 CNS): < 0.01 µM
TGI (SNB-75 CNS): 7.92 µM
GI50 (PC-3 prostate): < 0.01 µM
TGI (PC-3 prostate): 21.8 µM
GI50 (MALME-3M melanoma): < 0.01 µM
TGI (MALME-3M melanoma): 4.92 µM
GI50 (MDA-MB-231 breast): < 0.018 µM
TGI (MDA-MB-231 breast): 8.04 µM
GI50 (HCT-116 colon): < 0.01 µM
TGI (HCT-116 colon): > 40.4 µM
GI50 (IGROV1 ovarian): < 0.0136 µM
TGI (IGROV1 ovarian): 0.463 µM

Cn1nc(-c2ccccc2)c2c(/C=C/c3ccc(Cl)cc3)onc2c1=O
TGI (ACHN renal): > 100 µM
TGI (RXF 393 renal): > 100 µM
TGI (HCT-116 colon): 28.4 µM
TGI (IGROV1 ovarian): > 100 µM

N#CCCN(C1=NN(C(=O)CC(=O)Nc2ccc(Cl)cc2)C(c2ccccc2)C1)c1ccc(Cl)cc1 (configuration not stated)
TGI (ACHN renal): > 100 µM
TGI (OVCAR-3 ovarian): > 100 µM
TGI (SNB-75 CNS): > 100 µM
TGI (RXF 393 renal): > 100 µM
TGI (MALME-3M melanoma): > 100 µM
TGI (HCT-116 colon): > 100 µM
TGI (IGROV1 ovarian): > 100 µM

Cn1cnc([N+](=O)[O-])c1Sc1nc2ccccc2o1
TGI (ACHN renal): 24.9 µM
TGI (OVCAR-3 ovarian): 14.7 µM
TGI (SNB-75 CNS): 32.9 µM
TGI (RXF 393 renal): 22.1 µM
TGI (MALME-3M melanoma): 16.6 µM
TGI (HCT-116 colon): 11.6 µM
TGI (IGROV1 ovarian): 27.7 µM

O=C1Nc2ccc(O)cc2/C1=C\c1ccncc1
GI50 (ACHN renal): 11.7 µM
TGI (ACHN renal): 27.9 µM
GI50 (OVCAR-3 ovarian): 13.3 µM
TGI (OVCAR-3 ovarian): 41 µM
GI50 (T-47D breast): 26.9 µM
TGI (T-47D breast): > 100 µM
GI50 (PC-3 prostate): 26.9 µM
TGI (PC-3 prostate): 77.8 µM
GI50 (MDA-MB-231 breast): 14.6 µM
TGI (MDA-MB-231 breast): 39.4 µM
GI50 (HCT-116 colon): 14.7 µM
TGI (HCT-116 colon): 39.9 µM
GI50 (IGROV1 ovarian): 4.27 µM
TGI (IGROV1 ovarian): 41.6 µM
